# Legend:
# [1] = molecular target: P-glycoprotein (Homo sapiens, UniProt P08183); type: binding; settings: for inhibition at 20 μM / inhibition at 10 μM: human, pH 7.5
# [2] = molecular target: human P-gp (Homo sapiens, UniProt P08183); assay: Calcein-AM efflux; type: cell-based
# [3] = system: P-gp; settings: cited from earlier work
# [4] = ongoing Phase III clinical trials; cited from earlier work
# Sequence of P-glycoprotein (P08183 whole entry): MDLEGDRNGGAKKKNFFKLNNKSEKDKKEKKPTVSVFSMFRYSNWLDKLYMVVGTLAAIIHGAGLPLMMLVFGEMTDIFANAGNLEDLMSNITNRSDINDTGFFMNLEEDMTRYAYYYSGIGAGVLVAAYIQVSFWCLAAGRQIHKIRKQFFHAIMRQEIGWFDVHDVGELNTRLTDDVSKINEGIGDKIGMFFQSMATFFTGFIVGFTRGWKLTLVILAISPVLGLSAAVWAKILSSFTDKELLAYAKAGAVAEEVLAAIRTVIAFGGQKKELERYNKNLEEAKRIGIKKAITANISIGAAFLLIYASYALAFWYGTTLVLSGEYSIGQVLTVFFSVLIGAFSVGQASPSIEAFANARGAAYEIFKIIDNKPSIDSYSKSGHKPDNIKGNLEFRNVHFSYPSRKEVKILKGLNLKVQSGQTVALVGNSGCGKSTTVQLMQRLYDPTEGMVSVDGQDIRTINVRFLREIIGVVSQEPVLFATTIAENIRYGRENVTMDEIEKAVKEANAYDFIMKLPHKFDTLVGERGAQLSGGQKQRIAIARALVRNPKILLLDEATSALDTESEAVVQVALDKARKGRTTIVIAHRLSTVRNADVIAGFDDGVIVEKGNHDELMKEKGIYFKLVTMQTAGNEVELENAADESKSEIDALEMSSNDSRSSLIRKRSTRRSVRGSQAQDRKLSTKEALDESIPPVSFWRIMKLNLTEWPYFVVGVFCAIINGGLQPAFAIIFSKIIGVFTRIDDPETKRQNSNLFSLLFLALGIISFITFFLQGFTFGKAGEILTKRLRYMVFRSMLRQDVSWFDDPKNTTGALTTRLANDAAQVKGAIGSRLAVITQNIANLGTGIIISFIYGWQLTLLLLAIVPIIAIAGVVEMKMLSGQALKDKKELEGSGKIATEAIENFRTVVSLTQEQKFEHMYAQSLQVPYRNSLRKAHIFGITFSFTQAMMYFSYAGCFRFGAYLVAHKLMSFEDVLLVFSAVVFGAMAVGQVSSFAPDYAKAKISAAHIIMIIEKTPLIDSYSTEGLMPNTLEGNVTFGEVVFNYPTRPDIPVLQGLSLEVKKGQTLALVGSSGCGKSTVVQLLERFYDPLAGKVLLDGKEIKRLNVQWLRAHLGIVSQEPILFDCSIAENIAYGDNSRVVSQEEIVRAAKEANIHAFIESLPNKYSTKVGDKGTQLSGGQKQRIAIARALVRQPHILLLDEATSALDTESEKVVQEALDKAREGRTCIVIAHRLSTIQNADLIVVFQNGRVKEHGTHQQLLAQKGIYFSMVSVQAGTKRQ
# Sequence of human P-gp (P08183 whole entry): as above
Compound,inhibition at 20 μM [1] [%],inhibition at 10 μM [1] [%],other results
"CCOC(=O)c1csc([C@@H](NC(=O)OC(C)(C)C)C(C)C)n1 [Compound 5, (S)-2-(1-tert-Butoxycarbonylamino-2-methylpropyl)thiazole-4-carboxylic acid ethyl ester]",20,–,–
"CC(C)[C@H](NC(=O)OC(C)(C)C)c1nc(C(=O)O)cs1 [Compound 6, (S)-2-(1-tert-Butoxycarbonylamino-2-methylpropyl)thiazole-4-carboxylic acid]",< 10,–,–
"CCOC(=O)c1csc([C@@H](N)C(C)C)n1 [Compound 7, (S)-2-(1-Amino-2-methylpropyl)thiazole-4-carboxylic acid ethyl ester]",< 10,–,–
"CC(C)[C@H](N)c1nc(C(=O)O)cs1 [Compound 8, (S)-2-(1-Amino-2-methylpropyl)thiazole-4-carboxylic acid]",< 10,–,–
"CCOC(=O)c1csc([C@@H](NC(=O)c2csc([C@@H](NC(=O)OC(C)(C)C)C(C)C)n2)C(C)C)n1 [Compound 9, (S)-2-(1-{[2-(1-tert-Butoxycarbonylamino-2-methylpropyl)thiazole-4-carbonyl]amino}-(S)-2-methylpropyl)thiazole-4-carboxylic acid ethyl ester]",87,–,IC50 [2]: 20 µM
"CC(C)[C@H](NC(=O)OC(C)(C)C)c1nc(C(=O)N[C@H](c2nc(C(=O)O)cs2)C(C)C)cs1 [Compound 10, (S)-2-(1-{[2-(1-tert-Butoxycarbonylamino-2-methylpropyl)thiazole-4-carbonyl]amino}-(S)-2-methylpropyl)thiazole-4-carboxylic acid]",< 10,–,–
"CCOC(=O)c1csc([C@@H](NC(=O)c2csc([C@@H](N)C(C)C)n2)C(C)C)n1 [Compound 11, (S)-2-(1-{[2-(1-Amino-2-methylpropyl)thiazole-4-carbonyl]amino}-(S)-2-methylpropyl)thiazole-4-carboxylic acid ethyl ester]",87,–,–
"CC(C)[C@H](N)c1nc(C(=O)N[C@H](c2nc(C(=O)O)cs2)C(C)C)cs1 [Compound 12, (S)-2-(1-{[2-(1-Amino-2-methylpropyl)thiazole-4-carbonyl]amino}-(S)-2-methylpropyl)thiazole-4-carboxylic acid]",23,–,–
"CCOC(=O)c1csc([C@@H](NC(=O)c2csc([C@@H](NC(=O)c3csc([C@@H](NC(=O)OC(C)(C)C)C(C)C)n3)C(C)C)n2)C(C)C)n1 [Compound 13, (S)-2-(1-{[2-(1-{[2-(1-tert-Butoxycarbonylamino-2-methylpropyl)thiazole-4-carbonyl]amino}-(S)-2-methylpropyl)thiazole-4-carbonyl]amino}-(S)-2-methylpropyl) thiazole-4-carboxylic acid ethyl ester]",–,91,–
"CC(C)[C@H](NC(=O)OC(C)(C)C)c1nc(C(=O)N[C@H](c2nc(C(=O)N[C@H](c3nc(C(=O)O)cs3)C(C)C)cs2)C(C)C)cs1 [Compound 14, (S)-2-(1-{[2-(1-{[2-(1-tert-Butoxycarbonylamino-2-methylpropyl)thiazole-4-carbonyl]amino}-(S)-2-methylpropyl)thiazole-4-carbonyl]amino}-(S)-2-methylpropyl)thiazole-4-carboxylic acid]",–,60,–
"CCOC(=O)c1csc([C@@H](NC(=O)c2csc([C@@H](NC(=O)c3csc([C@@H](N)C(C)C)n3)C(C)C)n2)C(C)C)n1 [Compound 15, (S)-2-(1-{[2-(1-{[2-(1-Amino-2-methylpropyl)thiazole-4-carbonyl]amino}-(S)-2-methylpropyl)thiazole-4-carbonyl]amino}-(S)-2-methylpropyl)thiazole-4-carboxylic acid ethyl ester]",–,91,–
"CCOC(=O)c1csc([C@@H](NC(=O)c2csc([C@@H](NC(=O)c3csc([C@@H](NC(=O)c4csc([C@@H](NC(=O)OC(C)(C)C)C(C)C)n4)C(C)C)n3)C(C)C)n2)C(C)C)n1 [Compound 18, (S)-2-(1-{[2-(1-{[2-(1-{[2-(1-tert-Butoxycarbonylamino-2-methylpropyl)thiazole-4-carbonyl]amino}-(S)-2-methylpropyl)thiazole-4-carbonyl]amino}-(S)-2-methylpropyl)thiazole-4-carbonyl]amino}-(S)-2-methylpropyl)thiazole-4-carboxylic acid ethyl ester]",–,99,"Decrease of cell based inhibitory activity as compared to homolog 13 ([2]; 10 μM, transport assays): 1.6 fold"
"CC(C)[C@@H]1NC(=O)c2csc(n2)[C@H](C(C)C)NC(=O)c2csc(n2)[C@H](C(C)C)NC(=O)c2csc(n2)[C@H](C(C)C)NC(=O)c2csc1n2 [Compound 20, Cyclic Tetramer]",–,–,"[125I]-IAAP % Inhibition ([1]; tested conc. 10 μM, 4-6 nM [125I]-IAAP, High-Five insect cell membranes): 95%"
"COc1ccc(CNC(=O)c2csc([C@@H](NC(=O)c3csc([C@@H](NC(=O)OC(C)(C)C)C(C)C)n3)C(C)C)n2)c(OC)c1 [Compound 23, [1-(4-{1-[4-(2,4-Dimethoxybenzylcarbamoyl)thiazol-2-yl]-(S)-2-methylpropylcarbamoyl}thiazol-2-yl)-(S)-2-methylpropyl]carbamic acid tert-butyl ester]",–,95,–
CC(C)[C@@H]1NC(=O)c2c[se]c(n2)[C@H](C(C)C)NC(=O)c2c[se]c(n2)[C@H](C(C)C)NC(=O)c2c[se]c1n2 [QZ59Se-SSS],–,–,Potency relative to corresponding QZ59Se-RRR isomer [3]: four-fold potent
C/C=C/C[C@@H](C)C(=O)[C@H]1C(=O)N[C@@H](C(C)C)C(=O)N(C)CC(=O)N(C)[C@@H](CC(C)C)C(=O)N[C@@H](C(C)C)C(=O)N(C)[C@@H](CC(C)C)C(=O)N[C@@H](C)C(=O)N[C@H](C)C(=O)N(C)[C@@H](CC(C)C)C(=O)N(C)[C@@H](CC(C)C)C(=O)N(C)[C@@H](C(C)C)C(=O)N1C [valspodar],–,–,Oral bioavailability [4]: very restricted oral bioavailability
